The source of these data is patent publication US6878690B2, “Compounds and methods” (PharmAxis Pty Ltd., priority 2000, dated 2005).

Several values for one entry are separate records, joined by “and”; a condition that tells them apart may be missing. Equal entries are not always repeated.

The test system of experiment [1] is DTH response to 2,4-dinitrofluorobenzene (DNFB). Nature of the experiment: Delayed-type hypersensitivity (DTH) response to DNFB, ear swelling. The experiment is classed as in vivo, Balb/C mice. An excerpt:
In the present Example, a murine model of Type IV hypersensitivity or delayed-type hypersensitivity (DTH) response to cutaneous contact with the chemical hapten 2,4-dinitrofluorobenzene (DNFB) (Aldrich Chemical Company Inc, USA) was used as a model to measure the anti-inflammatory effects of compounds of the present invention. Specific pathogen-free 8-12 week old female Balb/C mice, weighing 19-21 g, were sensitised in a similar manner to that described by Klimuk et al., (Klimuk et al., 1999) by applying a solution of DNFB (0.5% in acetone:olive oil (4:1, v/v); 30 microliters,) onto a 2 cm^2 shaved area of the abdomen. After 7 days, the animals were anesthetised with diethyl ether and 8 microliters of DNFB (0.35% in acetone:olive oil (4:1, v/v) was applied to the dorsal and ventral surfaces of the right pinna. Prior to regaining consciousness, the mice were implanted intraperitoneally with Alzet 2001 mini-osmotic pumps (Alza Corp., Palo Alto Calif., USA) containing phosphoric acid mono-[6-(3-hexyloxy-propyl)-3,4,5-trihydroxy-tetrahydro-pyran-2-ylmethyl] ester, sodium salt in normal saline. The dose delivered was 50 mg/kg/day. Control animals for this group received saline delivered in identical mini-osmotic pumps. A second experimental group of mice received phosphoric acid mono-[3-(3,4,5-trihydroxy-6-phosphonooxymethyl-tetrahydro-pyran-2-yl)-propyl] ester disodium salt via one-week delivery Alzet 2001 mini-osmotic pumps implanted intraperitoneally. This compound was delivered at a dose of 40 mg/kg/day. Control animals for this group received saline delivered in identical mini-osmotic pumps. In a third experiment a separate group of mice received (3,4,5-trihydroxy-6-phosphonooxymethyl-tetrahydro-pyran-2-yl)-acetic acid disodium salt via one-week delivery Alzet 2001 mini-osmotic pumps that were placed intraperitoneally. This compound was delivered at 45 mg/kg/day. The control group for this experiment received identical mini-osmotic pumps containing normal saline. In a fourth experiment a group of mice received 3-phenyl-2-[2-(3,4,5-trihydroxy-6-phosphonooxymethyl-tetrahydro-pyran-2-yl)-acetylamino]-propionic acid monosodium salt via one-week delivery Alzet 2001 mini-osmotic pumps that were placed subcutaneously. This compound was delivered at 62 mg/kg/day. The control group for this experiment received identical mini-osmotic pumps containing normal saline. In a fifth experiment a group of mice received hexanoic acid 3-(3,4,5-trihydroxy-6-phosphonooxymethyl-tetrahydro-pyran-2-yl)-propyl ester sodium salt via one-week delivery Alzet 2001 mini-osmotic pumps that were placed subcutaneously. This compound was delivered at 40 mg/kg/day. The control group for this experiment received identical mini-osmotic pumps containing normal saline.
Twenty-four hours after challenge the mice were lightly anesthetised with diethyl ether and the thickness of the left and right pinnae measured (in millimeters) using a dial gauge micrometer (Interapid, Switzerland). Care was taken to measure only the outer two thirds of the ear. The increase in ear thickness initiated by the DTH response was determined by subtracting the measurement of the left ear (untreated) from the right ear (challenged).
In Table 4, values in the columns labeled Left and Right are measurements of ear thickness in millimeters of the control and challenged ears respectively.

In experiment [2] the test system is lymphocyte migration into the spleen. Nature of the experiment: Inhibition of lymphocyte migration into lymphoid tissue (spleen). The experiment is classed as in vivo, Balb/C mice. The note with it: intravenous dose of 5 mg of test compound together with labelled lymphocytes; spleens removed 1.5 hours after injection. From the text: In the present example, spleens from specific pathogen free 6-8 week old female Balb/C mice [19-21 g] were used to prepare a single cell suspension in the usual manner in mixed lymphocyte culture medium (DMEM plus glucose, folic acid, L-asparagine, sodium bicarbonate, L-glutamine, sodium pyruvate, HEPES, 2-mercaptoethanol, penicillin, streptomycin, neomycin, and 2% fetal calf serum) by pushing through a stainless steel screen. Following cell collection the red blood cells were lysed in the usual manner by treating with a solution of ammonium chloride, EDTA and sodium hydrogen carbonate (pH 7.3) and the preparation strained (Falcon 2350 cell strainer). All cell preparative steps were performed on ice.
In order to deplete the preparation of B lymphocytes, the cells were suspended in purified rat anti-mouse CD45/B220 antibody (RA3-6B2 clone; PharMingen, USA) at a concentration of 4×10^7 cells per ml and incubated on ice for 20 minutes. An equal volume of mixed lymphocyte culture medium (as above) was then added and the cells centrifuged (200× g) and resuspended at a concentration of 1×10^7 cells per ml in BioMag goat ant-rat IgG (H&L) linked to magnetic beads (Bio Mag; Perseptive Diagnostics, Polysciences Inc, USA). Following a 20 minute incubation on ice, with agitation every 5 minutes, the goat anti-rat IgG/antibody complex was removed using magnetic separation (Dynal MPC-6, Dynal, USA). The magnetic separation procedure was repeated 4 times giving a cell population containing approximately 80-90% T lymphocytes (determined by FACS analysis).
The cells were then washed in Hanks media, resuspended in 5 ml of Hanks, and radio-labelled for 30 minutes at 37° C. with sodium chromate solution (^51Cr, 34 MBq/ml, Amersham, UK). The labelled cells were washed in PBS centrifuged (200×g) and a portion were resuspended at a concentration of 3×10^7 cells/ml in either PBS (negative control), or PBS containing the test compound (25 mg/ml), and stored on ice. Balb/C mice in the negative control and treatment groups received a volume of 0.2 ml of the labelled cell preparation by a lateral tail vein injection. Negative control mice received 0.2 ml of PBS together with 6×10^6 51chromium-labelled lymphocytes, and mice from the treated groups received an intravenous dose of 5 mg of the test compound together with 6 million ^51chromium-labelled lymphocytes. […]
Spleens from the recipient mice were removed 1.5 hours after injection and the cell-associated radioactivity (CPM) determined using a gamma counter (Packard Auto-Gamma 5650. IL, USA). Results (inhibition of lymphocyte migration into the spleen) were expressed as a percentage reduction in the CPM of the spleens from treated animals compared with negative controls.

Experiment [3] relates to T lymphocyte migration into the right ear. Put plainly: Inhibition of in vivo migration of T lymphocytes into extra lymphatic tissues (picryl chloride treated ear). Details: species or system Balb/C mice. Particulars: 5 mg per mouse, IV, 9 to 10 hours after cell transfer. An excerpt:
T lymphocytes are known to migrate from the blood stream into tissues, including tissues that contain an antigen to which they can respond. An in vivo example of T lymphocyte migration involves the intravenous injection of radioisotopically- or fluorescently-labelled antigen-specific T cells into a mammal that has the antigen present in one or more of its tissues. An assessment of the degree to which the injected T cells have accumulated in the antigen-containing tissue can be made either by measuring the amount of radioactivity present in the tissue or analysing the tissue histologically to determine the number of infiltrated fluorescently labelled cells. […] For example, in the case of a CNS antigen the cells will localise in the brain and spinal cord and the number of labelled cells that have accumulated there can then be determined. […] Within a short time of cell transfer sensitised T cells begin to accumulate in the haptenised tissue and eight to twenty-four hours later the tissue can be removed and the cell accumulation assessed. In the case of fluorescently-labelled cells their accumulation is assessed histologically and in the case of the radio-labelled cells accumulation is assessed by counting radio active decay in a suitable device. […]

In the case of `O=C([O-])CC1OC(COP(=O)(O)O)C(O)C(O)C1O.O=C([O-])CC1OC(COP(=O)(O)O)C(O)C(O)C1O.[Na+].[Na+]` (stereo not shown) [(3,4,5-trihydroxy-6-phosphonooxymethyl-tetrahydro-pyran-2-yl)-acetic acid disodium salt], the “Mean percentage decrease in ear swelling in treated animals” value in experiment [1] (45 mg/kg/day intraperitoneally, versus saline controls) is listed as “Mean percentage decrease in ear swelling intreated animals: 29.4%”. For the same molecule, the “Mean Difference, Treated” value in experiment [1] (group mean, 45 mg/kg/day intraperitoneally, saline control mean 0.068) stood at 0.048 millimeters. Besides, the “Difference (right minus left ear), Treated” value in experiment [1] (individual mice, 45 mg/kg/day, mini-osmotic pump intraperitoneally, 24 hours after challenge, disodium salt) is 0.06 millimeters (2×) and 0.05 millimeters (3×) and 0.03 millimeters (3×) and 0.07 millimeters. Also, the “Right ear thickness, Treated” value in experiment [1] (individual mice, challenged ear, 45 mg/kg/day, mini-osmotic pump intraperitoneally, 24 hours after challenge, disodium salt) was 0.27 millimeters (3×) and 0.24 millimeters (2×) and 0.29 millimeters and 0.26 millimeters (3×). Moreover, the “Left ear thickness, Treated” value in experiment [1] (individual mice, control (unchallenged) ear, 45 mg/kg/day, mini-osmotic pump intraperitoneally, 24 hours after challenge, disodium salt) was 0.21 millimeters (6×) and 0.22 millimeters (2×) and 0.23 millimeters. The “Percent Inhibition (relative to negative controls) of lymphocyte migration into spleens” value in experiment [2] is recorded as 85.5%.
Consider “Phenylethyl (3,4,5-trihydroxy-6-phosphonooxymethyl-tetrahydro-pyran-2-yl)-acetic acid ester”, for which the “Percent inhibition of T cell migration” value in experiment [3] stood at 26.1%.
